The values that follow come from patent US9029391B2 (priority 2011, dated 2015).

The test has as its system HIV. Nature of the test: MT4 Assay (anti-HIV activity). Format: cell-based. The procedure:
Antiviral HIV activity and cytotoxicity values for compounds of the invention from Table 1 were measured in parallel in the HTLV-1 transformed cell line MT-4 based on the method previously described (Hazen et al., 2007, In vitro antiviral activity of the novel, tyrosyl-based human immunodeficiency virus (HIV) type 1 protease inhibitor brecanavir (GW640385) in combination with other antiretrovirals and against a panel of protease inhibitor-resistant HIV (Hazen et al., “In vitro antiviral activity of the novel, tyrosyl-based human immunodeficiency virus (HIV) type 1 protease inhibitor brecanavir (GW640385) in combination with other antiretrovirals and against a panel of protease inhibitor-resistant HIV”, Antimicrob. Agents Chemother. 2007, 51: 3147-3154; and Pauwels et al., “Sensitive and rapid assay on MT-4 cells for the detection of antiviral compounds against the AIDS virus”, J. of Virological Methods 1987, 16: 171-185).
Luciferase activity was measured 96 hours later by adding a cell titer glo (Promega, Madison, Wis.). Percent inhibition of cell protection data was plotted relative to no compound control. Under the same condition, cytotoxicity of the compounds was determined using cell titer glo (Promega, Madison, Wis.). IC50s were determined from a 10 point dose response curve using 3-4-fold serial dilution for each compound, which spans a concentration range >1000 fold.

Where [1] appears, read: Human immunodeficiency virus 1, 96 h, read-out: HIV MT4 Assay IC50, HTLV-1 transformed cell line MT-4, cell titer glo, 10 point dose response curve.

The structures appear in SMILES notation. Like-named read-outs stand apart in the source and are kept apart here.

As usually defined, the IC50 is the concentration at which inhibition is half-maximal. In the case of `Cc1ccc(COc2ccc3c(-c4cc(F)c5c(c4C)CCCO5)c([C@H](OC(C)(C)C)C(=O)O)n(C)c(=O)c3c2)s1` [Example 113, (2S)-2-(tert-butoxy)-2-[4-(8-fluoro-5-methyl-3,4-dihydro-2H-1-benzopyran-6-yl)-2-methyl-7-[(5-methylthiophen-2-yl)methoxy]-1-oxo-1,2-dihydroisoquinolin-3-yl]acetic acid], under setting [1], the IC50 stood at 0.03 µM. On the same count and under the same terms, for `Cc1c(-c2c([C@H](OC(C)(C)C)C(=O)O)n(C)c(=O)c3cc(F)ccc23)cc(F)c2c1CCCO2` [Example 139, (2S)-2-(tert-butoxy)-2-[7-fluoro-4-(8-fluoro-5-methyl-3,4-dihydro-2H-1-benzopyran-6-yl)-2-methyl-1-oxo-1,2-dihydroisoquinolin-3-yl]acetic acid] the value was 0.03 µM. On the same count and under the same terms, the value for `CCOC(C(=O)O)c1c(-c2ccc(C)cc2C)c2ccccc2c(=O)n1C` (stereo not drawn) [Example 218, [4-(2,4-dimethylphenyl)-2-methyl-1-oxo-1,2-dihydro-3-isoquinolinyl](ethyloxy)acetic acid] was 33.2 µM. Same read-out and setting: for `Cn1c(C(OC(C)(C)C)C(=O)O)c(-c2ccc3c(c2)OCCC3)c2ccccc2c1=O` (stereo not drawn) [Example 36, 2-(tert-butoxy)-2-[4-(3,4-dihydro-2H-1-benzopyran-7-yl)-2-methyl-1-oxo-1,2-dihydroisoquinolin-3-yl]acetic acid] the value was 15 µM; for `Cc1c(-c2c([C@H](OC(C)(C)C)C(=O)O)n(C)c(=O)c3cc(N4CCS(=O)(=O)CC4)ccc23)cc(F)c2c1CCCO2` (atropisomer, axis not shown; (M)) [Example 167, (2S)(M)-[(1,1-dimethylethyl)oxy][7-(1,1-dioxido-4-thiomorpholinyl)-4-(8-fluoro-5-methyl-3,4-dihydro-2H-chromen-6-yl)-2-methyl-1-oxo-1,2-dihydro-3-isoquinolinyl]ethanoic acid], 3.71 µM. In the case of `Cc1c(-c2c(C(OC(C)(C)C)C(=O)O)n(C)c(=O)c3ccc(F)cc23)ccc2c1CCCO2` (stereo not drawn) [Example 69, 2-(tert-butoxy)-2-[6-fluoro-2-methyl-4-(5-methyl-3,4-dihydro-2H-1-benzopyran-6-yl)-1-oxo-1,2-dihydroisoquinolin-3-yl]acetic acid], the IC50 under setting [1] is 0.57 µM. Consider `COc1ccccc1-c1c(C(OC(C)(C)C)C(=O)O)n(C)c(=O)c2ccccc12` (stereo not drawn) [Example 33, 2-(tert-butoxy)-2-[4-(2-methoxyphenyl)-2-methyl-1-oxo-1,2-dihydroisoquinolin-3-yl]acetic acid], for which the IC50 under setting [1] was 21.7 µM.

For the compound `CCn1c(C(OC(C)(C)C)C(=O)O)c(-c2ccc(C)c(C)c2)c2ccccc2c1=O` (stereo not drawn) [Example 28, 2-(tert-butoxy)-2-[4-(3,4-dimethylphenyl)-2-ethyl-1-oxo-1,2-dihydroisoquinolin-3-yl]acetic acid], under setting [1], the IC50 was 6.13 µM. Take `Cc1c(-c2c([C@@H](OC(C)(C)C)C(=O)O)n(C)c(=O)c3ccccc23)cc(F)c2c1CCCO2` [Example 161, (2R)-2-(tert-butoxy)-2-[4-(8-fluoro-5-methyl-3,4-dihydro-2H-1-benzopyran-6-yl)-2-methyl-1-oxo-1,2-dihydroisoquinolin-3-yl]acetic acid]: the IC50 (read-out: HIV MT4 Assay IC50, HTLV-1 transformed cell line MT-4, 96 hours, cell titer glo, 10 point dose response curve) was found to be 7.21 µM.

Turning to `Cc1ccc(-c2c(C(OC(C)(C)C)C(=O)O)n(C)c(=O)c3cc(-c4cn(CCO)nn4)ccc23)c(C)c1` (stereo not drawn) [Example 219, [(1,1-dimethylethyl)oxy]{4-(2,4-dimethylphenyl)-7-[1-(2-hydroxyethyl)-1H-1,2,3-triazol-4-yl]-2-methyl-1-oxo-1,2-dihydro-3-isoquinolinyl}acetic acid], under setting [1], the IC50 came out at 11.1 µM.

Take `CC(C)(C)OC(C(=O)O)c1c(-c2ccc3c(c2)CCCO3)c2ccccc2c(=O)n1C1CC1` (stereo not drawn) [Example 30, 2-(tert-butoxy)-2-[2-cyclopropyl-4-(3,4-dihydro-2H-1-benzopyran-6-yl)-1-oxo-1,2-dihydroisoquinolin-3-yl]acetic acid]: the IC50 under setting [1] is 38.3 µM. Same read-out and setting: the value for `Cc1ccc2c(-c3ccc4c(c3)CCCO4)c(C(OC(C)(C)C)C(=O)O)n(C)c(=O)c2c1` (stereo not drawn) [Example 58, 2-(tert-butoxy)-2-[4-(3,4-dihydro-2H-1-benzopyran-6-yl)-2,7-dimethyl-1-oxo-1,2-dihydroisoquinolin-3-yl]acetic acid] was 0.37 µM; that for `Cc1c(-c2c([C@H](OC(C)(C)C)C(=O)O)n(C)c(=O)c3cc(-c4ccoc4)ccc23)cc(F)c2c1CCCO2` (atropisomer, axis not shown; (M)) [Example 194, (2S)(M)-[(1,1-dimethylethyl)oxy][4-(8-fluoro-5-methyl-3,4-dihydro-2H-chromen-6-yl)-7-(3-furanyl)-2-methyl-1-oxo-1,2-dihydro-3-isoquinolinyl]ethanoic acid] was 0.04 µM; that for `Cn1c(C(OC(C)(C)C)C(=O)O)c(-c2ccc3ncccc3c2)c2ccccc2c1=O` (stereo not drawn) [Example 62, 2-(tert-butoxy)-2-[2-methyl-1-oxo-4-(quinolin-6-yl)-1,2-dihydroisoquinolin-3-yl]acetic acid] was 11.1 µM. Still for that read-out and setting: the value for `Cc1c(-c2c(C(OC(C)(C)C)C(=O)O)n(C)c(=O)c3cc(OC(F)F)ccc23)ccc2c1CCCO2` (stereo not drawn) [Example 114, 2-(tert-butoxy)-2-[7-(difluoromethoxy)-2-methyl-4-(5-methyl-3,4-dihydro-2H-1-benzopyran-6-yl)-1-oxo-1,2-dihydroisoquinolin-3-yl]acetic acid] was 0.42 µM; that for `COc1ccc(-c2c(C(OC(C)(C)C)C(=O)O)n(C)c(=O)c3ccccc23)cc1OC` (stereo not drawn) [Example 50, 2-(tert-butoxy)-2-[4-(3,4-dimethoxyphenyl)-2-methyl-1-oxo-1,2-dihydroisoquinolin-3-yl]acetic acid] was 25.6 µM; that for `CCCC(C(=O)O)c1c(-c2ccc(C)cc2C)c2ccccc2c(=O)n1C` (stereo not drawn) [Example 216, 2-[4-(2,4-dimethylphenyl)-2-methyl-1-oxo-1,2-dihydro-3-isoquinolinyl]pentanoic acid] was 36.6 µM.

With `Cc1c(-c2c([C@H](OC(C)(C)C)C(=O)O)n(C)c(=O)c3cc(OCc4ccc(F)cc4F)ccc23)ccc2c1CCCO2` [Example 148, (2S)-2-(tert-butoxy)-2-{7-[(2,4-difluorophenyl)methoxy]-2-methyl-4-(5-methyl-3,4-dihydro-2H-1-benzopyran-6-yl)-1-oxo-1,2-dihydroisoquinolin-3-yl}acetic acid], under setting [1], the IC50 stood at 0.05 µM.

As to `CCc1c(-c2c(C(OC(C)(C)C)C(=O)O)n(C)c(=O)c3ccccc23)ccc2c1CCCO2` (stereo not drawn) [Example 121, 2-(tert-butoxy)-2-[4-(5-ethyl-3,4-dihydro-2H-1-benzopyran-6-yl)-2-methyl-1-oxo-1,2-dihydroisoquinolin-3-yl]acetic acid], the IC50 under setting [1] was determined as 0.94 µM. On the same count and under the same terms, for `Cn1cc(-c2c(C(OC(C)(C)C)C(=O)O)n(C)c(=O)c3ccccc23)cn1` (stereo not drawn) [Example 157, [(1,1-dimethylethyl)oxy][2-methyl-4-(1-methyl-1H-pyrazol-4-yl)-1-oxo-1,2-dihydro-3-isoquinolinyl]acetic acid] the value was 41.6 µM; for `Cc1n[nH]c(C)c1-c1ccc2c(-c3cc(F)c4c(c3C)CCCO4)c([C@H](OC(C)(C)C)C(=O)O)n(C)c(=O)c2c1` (atropisomer, axis not shown; (M)) [Example 196, (2S)(M)-[(1,1-dimethylethyl)oxy][7-(3,5-dimethyl-1H-pyrazol-4-yl)-4-(8-fluoro-5-methyl-3,4-dihydro-2H-chromen-6-yl)-2-methyl-1-oxo-1,2-dihydro-3-isoquinolinyl]ethanoic acid], 1.16 µM.
